Activity calls are given as the source filed them. Cut-off read from the data, not from the text of the source, for most assays here: actives have a measured EC50 and inactives only a lower limit.
Tests used:
Beta-galactosidase = Beta-galactosidase (Escherichia coli, UniProt Q8VNN2); assay: Dose response counterscreen for EBI2 assay utilizing the enzyme, b-galactosidase.; format: functional
[1] = target: T1, Rac GTPase-activating protein 1 (Homo sapiens, UniProt Q9H0H5); assay: blockers of MgcRacGAP-driven Rac1 GTP hydrolysis – biochemical, ADP Hunter fluorescence, primary and confirmatory, confirmation (AID 624330); format: functional
T1 sequence (Q9H0H5 whole entry): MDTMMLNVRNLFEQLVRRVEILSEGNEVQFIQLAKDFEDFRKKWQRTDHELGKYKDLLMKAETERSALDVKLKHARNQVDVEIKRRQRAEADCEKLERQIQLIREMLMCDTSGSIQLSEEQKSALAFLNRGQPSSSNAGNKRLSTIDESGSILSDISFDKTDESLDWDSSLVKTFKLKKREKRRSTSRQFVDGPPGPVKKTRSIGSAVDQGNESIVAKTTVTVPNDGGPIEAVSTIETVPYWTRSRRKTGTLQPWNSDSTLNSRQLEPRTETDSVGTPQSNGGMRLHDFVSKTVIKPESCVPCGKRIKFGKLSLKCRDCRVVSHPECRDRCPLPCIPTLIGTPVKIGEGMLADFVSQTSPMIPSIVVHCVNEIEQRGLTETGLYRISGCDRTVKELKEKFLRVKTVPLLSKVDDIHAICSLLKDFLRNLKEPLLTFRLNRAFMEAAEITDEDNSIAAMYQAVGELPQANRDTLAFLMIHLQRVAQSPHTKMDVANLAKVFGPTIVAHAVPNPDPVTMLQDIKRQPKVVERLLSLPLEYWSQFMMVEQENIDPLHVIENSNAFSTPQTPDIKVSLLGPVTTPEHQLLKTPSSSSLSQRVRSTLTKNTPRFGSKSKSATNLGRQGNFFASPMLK

[2] = DRD fibroblast viability loss – cell-based, non-viral oncogenic, luminescence, dose response (AID 1934); format: functional; conditions: Homo sapiens
BJ [3] = assay: cells; format: functional, cell-based; conditions: Homo sapiens
BJ [4] = assay: growth inhibition of engineered Ras-driven BJ cells – cell-based, alamar blue fluorescence, cherrypicked samples, dose response (AID 2631); format: functional; conditions: Homo sapiens;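 note: confirmatory dose-response assay in RAS-dependent BJ fibroblasts engineered with TERT, LT and ST, with cytotoxicity read by fluorescence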
BJ [5] = assay: BJ-TERT fibroblast viability loss – cell-based, RAS-independent, luminescence, dose response (AID 1933); format: functional; conditions: Homo sapiens
BJ [6] = assay: BJ-TERT-LT-ST fibroblast viability loss – cell-based, RAS-independent, luminescence, dose response (AID 1935); format: functional; conditions: Homo sapiens;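 note: BJ fibroblasts immortalized with TERT plus LT and ST oncogenes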
[7] = target: T2, Apoptotic protease-activating factor 1 (Homo sapiens, UniProt O14727); assay: SAR analysis of small molecule Activators of Apaf-1 in a Fluorescent assay.; format: functional; conditions: read-out: EC50_Mean;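 note: caspase-3 cleavage of fluorogenic Rh110 DEVD substrate downstream of apoptosome activation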
T2 sequence (O14727 whole entry): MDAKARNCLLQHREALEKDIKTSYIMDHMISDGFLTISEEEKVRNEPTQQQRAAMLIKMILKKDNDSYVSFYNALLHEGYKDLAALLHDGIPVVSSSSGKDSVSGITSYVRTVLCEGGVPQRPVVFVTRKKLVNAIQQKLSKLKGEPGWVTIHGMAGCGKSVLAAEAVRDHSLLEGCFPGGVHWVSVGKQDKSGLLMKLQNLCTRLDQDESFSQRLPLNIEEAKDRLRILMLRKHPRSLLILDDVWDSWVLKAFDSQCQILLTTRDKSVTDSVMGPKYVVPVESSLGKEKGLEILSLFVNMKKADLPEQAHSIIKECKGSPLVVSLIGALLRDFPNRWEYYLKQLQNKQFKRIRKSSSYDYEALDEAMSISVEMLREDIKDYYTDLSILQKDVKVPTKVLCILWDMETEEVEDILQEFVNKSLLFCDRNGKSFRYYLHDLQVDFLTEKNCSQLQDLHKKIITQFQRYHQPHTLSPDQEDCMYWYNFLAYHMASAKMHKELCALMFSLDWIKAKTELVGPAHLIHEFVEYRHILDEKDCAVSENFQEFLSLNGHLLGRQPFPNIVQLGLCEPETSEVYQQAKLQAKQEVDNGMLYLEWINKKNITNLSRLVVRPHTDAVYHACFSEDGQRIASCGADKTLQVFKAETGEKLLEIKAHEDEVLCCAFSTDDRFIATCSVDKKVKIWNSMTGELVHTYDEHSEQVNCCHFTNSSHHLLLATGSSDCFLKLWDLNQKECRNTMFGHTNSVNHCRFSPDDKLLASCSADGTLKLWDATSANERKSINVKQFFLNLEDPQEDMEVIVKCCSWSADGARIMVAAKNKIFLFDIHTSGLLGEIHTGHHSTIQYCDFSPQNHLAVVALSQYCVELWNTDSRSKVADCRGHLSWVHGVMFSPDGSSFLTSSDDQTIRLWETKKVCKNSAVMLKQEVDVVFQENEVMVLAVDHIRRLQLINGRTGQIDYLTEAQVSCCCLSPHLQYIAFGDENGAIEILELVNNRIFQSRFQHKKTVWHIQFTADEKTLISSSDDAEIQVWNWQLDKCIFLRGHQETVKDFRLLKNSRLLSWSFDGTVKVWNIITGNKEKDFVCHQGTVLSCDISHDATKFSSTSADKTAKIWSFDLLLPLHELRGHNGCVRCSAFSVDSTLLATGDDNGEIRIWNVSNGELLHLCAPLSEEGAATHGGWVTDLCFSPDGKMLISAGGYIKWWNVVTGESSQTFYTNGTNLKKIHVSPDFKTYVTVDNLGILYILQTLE

[8] = bead-based luminescence quenchers, dual-tagged ARNT – biochemical, AlphaScreen, cherry-pick, artefact control for ARNT-TACC3 interaction inhibitor project, dose response (AID 651705); format: functional;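 note: AlphaScreen bead proximity signal that flags compounds interfering with the detection technology; potency reflects signal decrease which marks the compound as an assay artifact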
[9] = target: T3, Serine/threonine-protein phosphatase (Candida dubliniensis (strain CD36 / CBS 7987 / NCPF 3949 / NRRLY-17841) (Yeast), UniProt B9W6M3); assay: blockers of CaCl2-induced CDRE-lacZ signaling – S. cerevisiae, luminescence, secondary, dose response (AID 2388); format: functional, cell-based;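 note: yeast reporter cells carrying a calcineurin-responsive lacZ construct stimulated with calcium chloride; luminescent beta-galactosidase reporter signal in whole cells rather than isolated phosphatase activity; potency for inhibition where a drop in reporter signal means calcineurin blockade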
T3 sequence (B9W6M3 whole entry): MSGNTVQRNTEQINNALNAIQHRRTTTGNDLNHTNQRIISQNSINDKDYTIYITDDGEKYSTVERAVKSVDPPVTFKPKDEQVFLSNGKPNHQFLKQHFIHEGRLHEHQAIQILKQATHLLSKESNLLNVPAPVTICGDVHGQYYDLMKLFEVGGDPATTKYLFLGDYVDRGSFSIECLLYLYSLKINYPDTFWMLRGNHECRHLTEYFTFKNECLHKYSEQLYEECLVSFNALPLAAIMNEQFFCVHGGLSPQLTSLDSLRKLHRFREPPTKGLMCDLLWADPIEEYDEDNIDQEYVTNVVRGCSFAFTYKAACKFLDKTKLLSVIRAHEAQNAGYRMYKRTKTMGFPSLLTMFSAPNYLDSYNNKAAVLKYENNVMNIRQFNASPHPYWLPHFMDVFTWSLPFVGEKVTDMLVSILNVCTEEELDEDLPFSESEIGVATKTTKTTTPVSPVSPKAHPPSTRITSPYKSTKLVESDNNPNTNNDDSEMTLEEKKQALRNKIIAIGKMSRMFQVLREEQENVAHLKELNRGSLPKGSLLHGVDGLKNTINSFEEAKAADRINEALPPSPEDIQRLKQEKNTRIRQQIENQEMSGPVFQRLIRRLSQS

[10] = target: Heat shock protein HSP 90-alpha (Homo sapiens, UniProt P07900); format: functional, organism-based
[11] = target: ATP-dependent molecular chaperone HSP82 (Candida albicans (strain WO-1) (Yeast), UniProt C4YTQ8); assay: steroid-induced GRE reporter decrease in yeast – S. cerevisiae, luminescence, Hsp90 inhibitor project, dose response (AID 2400); format: functional, cell-based;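 note: beta-galactosidase luminescence from glucocorticoid response element reporter as proxy for Hsp90 function; inhibitor potency where signal loss means Hsp90 inhibition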
ATP-dependent molecular chaperone HSP82, sequence (C4YTQ8 whole entry): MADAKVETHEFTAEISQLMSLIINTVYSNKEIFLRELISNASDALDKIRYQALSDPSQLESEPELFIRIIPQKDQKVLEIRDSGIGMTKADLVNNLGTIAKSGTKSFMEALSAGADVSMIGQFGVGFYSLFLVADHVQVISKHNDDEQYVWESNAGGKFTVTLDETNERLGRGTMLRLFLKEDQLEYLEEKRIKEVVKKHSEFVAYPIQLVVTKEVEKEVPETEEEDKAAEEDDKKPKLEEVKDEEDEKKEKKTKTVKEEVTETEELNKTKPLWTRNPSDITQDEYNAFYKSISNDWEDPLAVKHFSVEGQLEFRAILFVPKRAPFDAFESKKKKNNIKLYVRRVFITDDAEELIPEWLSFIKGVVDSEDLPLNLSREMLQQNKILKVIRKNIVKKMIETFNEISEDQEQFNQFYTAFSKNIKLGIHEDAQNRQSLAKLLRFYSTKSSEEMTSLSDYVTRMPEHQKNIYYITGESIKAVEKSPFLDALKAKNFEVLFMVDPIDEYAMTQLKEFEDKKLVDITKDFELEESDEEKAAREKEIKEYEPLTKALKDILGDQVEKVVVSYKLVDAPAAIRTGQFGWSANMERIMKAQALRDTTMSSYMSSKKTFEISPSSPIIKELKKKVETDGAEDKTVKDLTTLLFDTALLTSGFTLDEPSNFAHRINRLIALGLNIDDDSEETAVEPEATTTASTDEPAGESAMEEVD

Melanocortin receptor 4 = Melanocortin receptor 4 (Homo sapiens, UniProt P32245); format: functional, cell-based;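 note: Cell-based assay with luminescence read-out, confirmatory dose-response testing for agonist activity of biased ligands at MC4R; human U2OS cells with tagged receptor and beta-arrestin; potency of agonists that increase receptor coupling to beta-arrestin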
Melanocortin receptor 4, sequence (P32245 whole entry): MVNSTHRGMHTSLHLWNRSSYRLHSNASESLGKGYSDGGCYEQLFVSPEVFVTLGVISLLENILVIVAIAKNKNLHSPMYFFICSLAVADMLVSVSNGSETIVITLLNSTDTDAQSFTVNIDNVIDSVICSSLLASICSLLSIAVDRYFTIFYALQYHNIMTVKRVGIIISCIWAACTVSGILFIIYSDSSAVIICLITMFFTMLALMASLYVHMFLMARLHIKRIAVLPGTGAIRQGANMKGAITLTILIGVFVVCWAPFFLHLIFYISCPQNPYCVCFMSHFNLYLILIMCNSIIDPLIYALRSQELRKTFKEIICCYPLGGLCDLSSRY

[12] = tested on: Streptococcus sp. 'group A'; assay: Streptococcus pyogenes SK(-)GAS viability under kanamycin – luminescence, BacTiterGlo, confirmation, counter-screen for streptokinase expression inhibitor project, dose response (AID 1900); format: functional, organism-based
[13] = Trypanosoma cruzi growth suppression in host cells – NIH3T3 host cells, beta-gal luminescence, confirmation (AID 2044); format: functional, cell-based;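 note: intracellular parasites grown in NIH/3T3 mouse fibroblasts as host cells; luminescent beta-galactosidase reporter signal from transgenic T. cruzi replicating inside host cells; inhibitors lower the luminescence signal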
[14] = NIH3T3 cell viability loss – ATP luminescence, mouse fibroblasts, counter-screen, dose response (AID 2010); format: functional, cell-based;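 note: cells exposed to compound for about 90 hours before reading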
[15] = NIH-3T3 fibroblast cytotoxicity, dose response, cytotoxicity control, cell-based, fluorescence, Alamar Blue, secondary assay (AID 2327); format: functional;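 note: NIH-3T3 mouse fibroblasts cultured with fluconazole at 8 µg/mL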
[16] = fluconazole-exposed Candida albicans growth modulators – fluorescence, retest, confirmation (AID 2467); format: functional, cell-based
Streptococcus = assay: GAS UMAA2166 growth inhibition – luminescence, BacTiterGlo, counter-screen for streptokinase expression inhibitor project, dose response (AID 1915); format: functional, organism-based;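 note: potency for reduction of bacterial viability or growth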
Streptokinase A = target: T4, Streptokinase A (Streptococcus pyogenes serotype M1, UniProt P10520); assay: viability-normalized secreted streptokinase activity reduction – plasminogen activation absorbance, OD405, dose response (AID 1914); format: functional, Streptococcus pyogenes M1 GAS;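 note: secreted streptokinase activity via plasminogen activation per viability signal from cell pellet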
T4 sequence (P10520 whole entry): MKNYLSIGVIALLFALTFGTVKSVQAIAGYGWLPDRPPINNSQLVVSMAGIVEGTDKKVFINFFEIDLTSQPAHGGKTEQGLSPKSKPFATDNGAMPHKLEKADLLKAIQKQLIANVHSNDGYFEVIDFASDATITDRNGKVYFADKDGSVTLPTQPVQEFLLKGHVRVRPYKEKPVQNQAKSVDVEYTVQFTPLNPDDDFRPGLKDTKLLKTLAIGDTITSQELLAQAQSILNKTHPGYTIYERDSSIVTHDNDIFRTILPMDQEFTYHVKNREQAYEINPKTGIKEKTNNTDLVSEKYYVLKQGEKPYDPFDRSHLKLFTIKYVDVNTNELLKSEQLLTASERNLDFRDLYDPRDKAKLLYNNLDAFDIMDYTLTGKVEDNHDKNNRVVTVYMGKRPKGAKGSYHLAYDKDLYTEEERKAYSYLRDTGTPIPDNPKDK

[17] = activation of miR-122 Renilla sensor silencing – cell-based, Huh7 psiCHECK-miR122, Renilla luciferase, cherry-picked, dose response (AID 651956); format: functional;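 note: huh7 hepatoma cells stably carrying a psiCHECK-2 miR-122 sensor plasmid; renilla luciferase signal reporting endogenous miR-122 activity after 48 h compound exposure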
[18] = general mammalian cell viability loss – inhibitor set, cherry-pick, set 2, cytotoxicity control for miR-122 modulator project, dose response (AID 720697); format: functional, cell-based
[19] = general mammalian cell viability loss – activator set, cherry-pick, cytotoxicity control for miR-122 modulator project, dose response (AID 720690); format: functional, cell-based;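 note: HEK293T human cells scored for general mammalian cytotoxicity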

Beta-galactosidase, sequence (Q8VNN2 whole entry): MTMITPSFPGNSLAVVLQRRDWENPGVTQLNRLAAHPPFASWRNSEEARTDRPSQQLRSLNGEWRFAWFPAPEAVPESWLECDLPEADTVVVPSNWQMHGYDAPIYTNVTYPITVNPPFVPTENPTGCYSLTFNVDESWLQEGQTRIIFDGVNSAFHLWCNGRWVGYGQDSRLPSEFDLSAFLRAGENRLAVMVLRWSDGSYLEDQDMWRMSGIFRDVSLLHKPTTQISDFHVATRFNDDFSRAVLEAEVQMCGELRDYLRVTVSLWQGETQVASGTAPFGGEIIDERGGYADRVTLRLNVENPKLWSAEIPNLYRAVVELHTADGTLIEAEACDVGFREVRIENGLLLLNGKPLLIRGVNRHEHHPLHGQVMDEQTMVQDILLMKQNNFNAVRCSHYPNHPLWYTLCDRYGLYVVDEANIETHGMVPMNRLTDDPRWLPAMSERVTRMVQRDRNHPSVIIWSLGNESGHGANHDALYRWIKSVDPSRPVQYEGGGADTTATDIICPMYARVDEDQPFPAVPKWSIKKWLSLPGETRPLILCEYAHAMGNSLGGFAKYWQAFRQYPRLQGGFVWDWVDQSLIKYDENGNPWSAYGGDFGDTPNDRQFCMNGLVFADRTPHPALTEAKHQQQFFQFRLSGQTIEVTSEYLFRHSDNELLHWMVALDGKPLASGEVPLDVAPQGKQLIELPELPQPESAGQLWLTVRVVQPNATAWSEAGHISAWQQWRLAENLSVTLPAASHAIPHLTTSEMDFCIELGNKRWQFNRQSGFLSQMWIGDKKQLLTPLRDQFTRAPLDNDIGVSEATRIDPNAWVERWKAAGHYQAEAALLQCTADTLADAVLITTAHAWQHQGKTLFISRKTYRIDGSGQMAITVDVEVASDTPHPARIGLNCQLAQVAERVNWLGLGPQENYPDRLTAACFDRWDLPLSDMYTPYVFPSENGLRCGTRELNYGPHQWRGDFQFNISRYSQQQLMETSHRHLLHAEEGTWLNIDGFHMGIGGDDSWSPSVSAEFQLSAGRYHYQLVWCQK

CCN(CC(=O)NCc1cccs1)C(=O)/C=C/c1ccc(C)cc1
IC50 (Beta-galactosidase): > 80 µM (inactive)

CCOc1cc(/C=C2\CN(C)C/C(=C\c3ccc(O)c(OCC)c3)C2=O)ccc1O
IC50 [1]: 38.9 µM (active) | EC50 [2]: 2.93 µM (active) | EC50 (BJ [3]): 4.94 µM (inconclusive) | EC50 (BJ [4]): 0.571 µM (active) | EC50 (BJ [5]): 3.26 µM (inconclusive) | EC50 (BJ [6]): 2.64 µM (inconclusive)

CC(=O)Nc1ccc(C(C)C)cc1
EC50 [7]: > 100 µM (inactive)

CCOc1ccccc1NC(=O)CCS(=O)(=O)c1cc2c(cc1Br)CCN2C(=O)C1CC1
EC50 [7]: > 100 µM (inactive)

O=C(COC(=O)c1ccco1)Nc1nnc(-c2ccccc2)o1
AC50 [8]: 133 µM (active)

O=c1[nH]c(-c2ccccn2)nc(C(F)(F)F)c1Br
EC50 [9]: > 180 µM (inactive) | AC50 [10]: 4.03 µM (active) | EC50 [11]: 10.7 µM (active)

COc1ccc(-c2cc(NC(C)=O)c3ncc(-c4ccccc4)n3c2)c(OC)c1
EC50 (Melanocortin receptor 4): > 89.2 µM (inactive)

O=CNc1cc(-c2ccsc2)cn2c(-c3ccccc3)cnc12
EC50 (Melanocortin receptor 4): > 89.2 µM (inactive)

CC(=O)Nc1cc(-c2ccccc2)cn2c(-c3ccc(F)cc3)cnc12
EC50 (Melanocortin receptor 4): > 89.2 µM (inactive)

O=C(c1ccco1)N1CCN(C(=O)C2CC(c3ccc(F)cc3)=NO2)CC1 (configuration not stated)
EC50 [7]: > 100 µM (inactive)

Cc1nnc(NC(=O)c2ccc(S(=O)(=O)N3CCCCC3C)cc2)o1 (configuration not stated)
AC50 [8]: 92.5 µM (active)

O=C(c1ccc(-n2cccc2)cc1)N1CCN(Cc2ccccc2)CC1
IC50 (Beta-galactosidase): > 80 µM (inactive)

CN(C)c1ccccc1-c1cc(NC=O)c2ncc(-c3cccc(C(F)(F)F)c3)n2c1
EC50 (Melanocortin receptor 4): > 89.2 µM (inactive)

COc1ccc(S(=O)(=O)N2CCCCC2)cc1NC(=O)CCS(=O)(=O)c1ccc(C)cc1
EC50 [7]: > 100 µM (inactive)

CCOc1ccc(N=Nc2ccc(O)c3ncccc23)cc1
EC50 [12]: 0.19 µM (active) | EC50 [9]: > 180 µM (inactive) | EC50 [13]: 0.65 µM (active) | EC50 [14]: 8.06 µM (active) | EC50 [15]: > 150 µM (inconclusive) | EC50 [16]: 1.11 µM (active) | EC50 (Streptococcus): 1.45 µM (active) | EC50 [11]: > 150 µM (inactive)

Cc1ccc(-c2cnc(N)n2C)cc1C
EC50 [12]: 3.86 µM (active) | EC50 (Streptococcus): > 150 µM (not active) | AC50 [8]: 71.8 µM (active) | EC50 (Streptokinase A): 89.4 µM (active)

Cc1ccc(C(=O)N2CCN(c3ccc(NC(=O)COc4ccccc4C)cc3)CC2)cc1
AC50 [17]: 18.7 µM (active) | AC50 [18]: 15.2 µM (active) | AC50 [19]: 30.9 µM (active)

C[C@@H]1CCCCO[C@H](CN(C)CC2CCCCC2)[C@H](C)CN([C@@H](C)CO)C(=O)c2cc(NC(=O)Nc3cccc4ccccc34)ccc2O1
AC50 [17]: 11.1 µM (active) | AC50 [18]: 0.587 µM (active) | AC50 [19]: 10.6 µM (active)

Cc1ccc(NC(=O)N2CCC(O)(c3ccc(Cl)cc3)CC2)cc1
IC50 (Beta-galactosidase): > 80 µM (inactive)

O=C(/C=C/c1ccc(Br)cc1)N1CCN(c2cccc(C(F)(F)F)c2)CC1
IC50 (Beta-galactosidase): > 80 µM (inactive)

N#Cc1ccc(OCC(=O)NCCCn2ccnc2)cc1
AC50 [8]: 95.7 µM (active)
